Data reported in the OPERA property sets (Mansouri et al. 2018).

Conditions: for log10 BCF / log10 biotransformation half-life (days): fish

c1ccc([Se][Se]c2ccccc2)cc1
melting point: 63.5 °C

C#CCC1(OC(N)=O)CCCCC1
melting point: 99 °C

CCC(c1ccc(O)c(C)c1)C(CC)c1ccc(O)c(C)c1 (stereo not drawn)
melting point: 145 °C

CCN(CC)CCOC(=O)[C@@H]1N2C(=O)[C@@H](NC(=O)Cc3ccccc3)[C@H]2SC1(C)C.I
melting point: 178 °C

N#Cc1ccccc1C(F)(F)F
boiling point: 205 °C
melting point: 18 °C

OCCN(CCO)c1nc(N2CCCCC2)c2nc(N(CCO)CCO)ncc2n1
melting point: 158 °C

ClC(Cl)(Cl)C1CO1 (stereo not drawn)
boiling point: 149 °C

C=CC(O)CO (stereo not drawn)
boiling point: 196 °C

CC(C)C1CCC(Cc2ccc(Cl)cc2)C1(O)Cn1cncn1 (stereo not drawn)
log10 vapour pressure (mmHg): -7.4
melting point: 89 °C

OCC(F)(F)C(F)(F)C(F)(F)C(F)(F)C(F)(F)C(F)(F)C(F)(F)C(F)F
melting point: 56 °C

FC(F)(F)C(Cl)=CCl
boiling point: 53.7 °C
melting point: -109 °C

CCC1(CC)C(=O)NC(=O)NC1=O
melting point: 190 °C

CN1CC=C(c2ccccc2)CC1
melting point: 40 °C

CCCCOc1ccc(CC(=O)NO)cc1
melting point: 154 °C

Cc1ccccc1B(O)O
melting point: 166 °C

Cc1c(NC(=O)c2cccnc2)c(=O)n(-c2ccccc2)n1C
melting point: 253 °C

CN(C)CCO
boiling point: 134 °C
log10 vapour pressure (mmHg): 0.502
melting point: -59 °C
ready biodegradability: readily biodegradable

N#CC1CC2CCC1C2 (stereo not drawn)
melting point: 44 °C

CN(c1ccccc1)c1ccccc1
boiling point: 294 °C
log10 vapour pressure (mmHg): -2.51
melting point: -7.5 °C

COc1ccc(N=[N+]([O-])c2ccc(OC)cc2)cc1
melting point: 127 °C

CCNc1nc(Cl)nc(NC(C)C)n1
log10 Koc (L/kg): 2.24
log10 vapour pressure (mmHg): -6.54
melting point: 173 °C
ready biodegradability: not readily biodegradable
log10 BCF: 0.9
log10 biotransformation half-life (days): -1.05

N#CCC(=O)O
melting point: 66 °C
ready biodegradability: readily biodegradable

Cn1cccn1
boiling point: 127 °C

O=[N+]([O-])c1ccc(Cl)cc1Cl
boiling point: 258 °C
melting point: 34 °C
ready biodegradability: not readily biodegradable
log10 BCF: 2.07
log10 biotransformation half-life (days): 0.83

Cc1ccccc1N(CC1CO1)CC1CO1 (stereo not drawn)
ready biodegradability: not readily biodegradable

CC1CCCCCC1=O (stereo not drawn)
boiling point: 185 °C

NCCN1CCOCC1
boiling point: 205 °C
melting point: 25.6 °C

Ic1cc(I)cc(I)c1
melting point: 184 °C

Cc1ccccc1O
boiling point: 191 °C
log10 Henry constant (atm·m³/mol): -5.92
log10 vapour pressure (mmHg): -0.524
melting point: 29.8 °C
ready biodegradability: readily biodegradable
log10 BCF: 1.03
log10 biotransformation half-life (days): -0.52

CS(=O)(=O)Nc1ccc([N+](=O)[O-])cc1Oc1ccccc1
melting point: 144 °C

C=COCCCCCC
boiling point: 143 °C

CC(C)N1C(=O)c2ccccc2NS1(=O)=O
log10 Koc (L/kg): 1.52
melting point: 138 °C

CC(=O)c1cccc([N+](=O)[O-])c1
boiling point: 202 °C
melting point: 81 °C

CC(=O)OCCN(CCC#N)c1ccc(N=Nc2nc3ccc([N+](=O)[O-])cc3s2)cc1
melting point: 167 °C

Cc1cccc(O)c1
boiling point: 202 °C
log10 Henry constant (atm·m³/mol): -6.07
log10 vapour pressure (mmHg): -0.959
melting point: 11.8 °C
ready biodegradability: readily biodegradable

Cc1cc(C)c(S(=O)(=O)Cl)c(C)c1
melting point: 56 °C

Cc1nc(N(C)C)nc(OC(=O)N(C)C)c1C
log10 Koc (L/kg): 1.9
log10 vapour pressure (mmHg): -5.14
melting point: 90.5 °C

Cc1ncc(CO)c(N)n1
melting point: 198 °C

C1CC2CC12 (stereo not drawn)
boiling point: 45.5 °C
log10 vapour pressure (mmHg): 2.56

Oc1ccc2c(c1)[C@@]13CCCC[C@H]1[C@@H](C2)NCC3
melting point: 271 °C

NNc1ccccc1
boiling point: 244 °C
log10 vapour pressure (mmHg): -1.58
melting point: 19.6 °C

Cc1ccc([N+](=O)[O-])cc1C
boiling point: 251 °C
log10 vapour pressure (mmHg): -2.44
melting point: 30.5 °C

CC(=O)OCOC(=O)[C@@H]1N2C(=O)[C@@H](NC(=O)Cc3ccccc3)[C@H]2SC1(C)C
melting point: 107 °C

C[Si]1(C)O[Si](C)(C)O[Si](C)(C)O[Si](C)(C)O[Si](C)(C)O1
boiling point: 210 °C
log10 Henry constant (atm·m³/mol): 1.52
log10 vapour pressure (mmHg): -0.699
melting point: -38 °C
log10 biotransformation half-life (days): 2.74

Nc1cc(C(=O)O)ccc1Cl
melting point: 214 °C

C#CCCCCCCCC#C
melting point: -17 °C

CCSCCSP(=O)(OC)OC
log10 Koc (L/kg): 1.49
log10 vapour pressure (mmHg): -3.52

CC(C)(c1ccc(OC(F)(F)C(F)F)cc1)c1ccc(OC(F)(F)C(F)F)cc1
log10 BCF: 4.35
log10 biotransformation half-life (days): 2.79

Clc1cc(Cl)c(Oc2cc(Cl)c(Cl)cc2Cl)c(Cl)c1
log10 biotransformation half-life (days): 2.01

CCCCOCC(C)O (stereo not drawn)
boiling point: 172 °C
ready biodegradability: readily biodegradable

ON=C1CCCCC1
boiling point: 206 °C
log10 vapour pressure (mmHg): -1.55
melting point: 90 °C

Clc1cc2c(cc1Cl)Oc1ccccc1O2
log10 Koa: 8.5
log10 vapour pressure (mmHg): -5.53
melting point: 163 °C
log10 biotransformation half-life (days): 0.33

Cc1ccc(-c2ccc(C)c(C)c2)cc1C
log10 biotransformation half-life (days): -0.01
